Source: patent US20260022143A1, “Cyclic Peptide Inhibitors of IL-23” (JANSSEN PHARMACEUTICA NV, priority 2022, published 2026)
Starred links: 1 amine or outer side, 2 acyl side, 3 side chain; linkers in the order of their positions; H or OH if unused. Positions of bridges follow the written chain, without caps; N, C: chain ends. Non-standard residues stand in square brackets, D forms with d. Residues, ends and D or L forms follow the SMILES beside them. Groups on a side chain read outwards from the residue. *: point of attachment. Me3N+CH2CH2(OCH2CH2)4CO = C[N+](C)(C)CCOCCOCCOCCOCCC(=O)*; Me3N+(CH2)2O(CH2)2O(CH2)2CO = C[N+](C)(C)CCOCCOCCC(=O)*; CH2CH2OCH2CH2OCH2CH2NMe3+ = C[N+](C)(C)CCOCCOCC*; Trp(7-Me) = Cc1cccc2c(C[C@H](N)C(=O)O)c[nH]c12; Dab(NMeAc) = CC(=O)N(C)CC[C@H](N)C(=O)O; X1 = CN(CC[C@H](N[*:1])C(=O)[*:2])[*:3]; 2Nal = N[C@@H](Cc1ccc2ccccc2c1)C(=O)O; AEF = NCCOc1ccc(C[C@H](N)C(=O)O)cc1; X19 = C[N+](C)(C)C[C@@H](CC(=O)O)N*; X24 = C[N+](C)(CCN[*:1])CC(=O)[*:2]; X50 = CCCC[N+](CCCC)(CCCC)CCOCCOCC*; Piperazinyl(4-Me) = CN1CCN(*)CC1; 3Pal = N[C@@H](Cc1cccnc1)C(=O)O; Lys(Me) = CNCCCC[C@H](N)C(=O)O; X7 = COCCOCCOCCOCCOCCOCCC(=O)*; X5 = C[N+](C)(C)CCOCCOCC(=O)*; Pen = CC(C)(S)[C@H](N)C(=O)O; Suc = O=C(CCC(=O)[*:2])[*:1]; Thp = NC1(C(=O)O)CCOCC1; X3 = C[N+](C)(C)CCCCC*; Me2NCH2CH2 = CN(C)CC*; Sar = CNCC(=O)O

Legend:
[1] = Exposed Polar Surface Area (EPSA); format: physicochemical; conditions: SFC on Chirex 3014 column; sample 1 mM DMSO stock; read-out: EPSA
Procedure, shortened: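 SFC retention on a Chirex 3014 (S)-valine/(R)-1-(α-naphthyl)ethylamine column, 35 °C, CO2 with MeOH (20 mM ammonium formate) gradient 5–60% at 20%/min, 14 MPa outlet. Retention times converted to EPSA (Å^2) via linear calibration with 8 standards; samples from 1 mM DMSO stock, run in duplicate.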

[2] = target: T1, IL-23R (Homo sapiens, UniProt Q5VWK5); experiment: IL23R Reporter Assay; format: cell-based; conditions: HEK293 cells containing IL-23R, IL-12RP1 and STAT-inducible firefly luciferase reporter; 10 ng/mL IL-23 (EC90); 5 h at 37° C.; read-out: IL23R Reporter Assay
T1 construct: host or cells: HEK293
T1 sequence (Q5VWK5 24-629): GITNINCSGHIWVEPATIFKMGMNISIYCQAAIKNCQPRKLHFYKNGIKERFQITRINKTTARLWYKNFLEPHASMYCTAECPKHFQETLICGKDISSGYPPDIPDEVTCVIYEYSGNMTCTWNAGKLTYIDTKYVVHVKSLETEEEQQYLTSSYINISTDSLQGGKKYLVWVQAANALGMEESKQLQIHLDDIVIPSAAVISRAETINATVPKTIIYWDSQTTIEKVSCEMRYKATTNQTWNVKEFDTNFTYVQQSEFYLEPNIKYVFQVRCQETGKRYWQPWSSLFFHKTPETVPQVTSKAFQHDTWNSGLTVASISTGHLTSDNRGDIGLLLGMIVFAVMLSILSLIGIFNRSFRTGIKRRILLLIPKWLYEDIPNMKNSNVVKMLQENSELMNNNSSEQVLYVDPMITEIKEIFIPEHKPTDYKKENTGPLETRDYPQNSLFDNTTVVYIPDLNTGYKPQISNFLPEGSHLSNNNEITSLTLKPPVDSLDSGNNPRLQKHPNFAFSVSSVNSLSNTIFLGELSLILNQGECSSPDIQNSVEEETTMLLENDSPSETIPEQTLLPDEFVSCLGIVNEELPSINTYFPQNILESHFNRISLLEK

Structure (SMILES) | EPSA [1] | IC50 [2]
CC(=O)N[C@@H]1C(=O)N[C@@H](C)C(=O)N[C@@H]([C@@H](C)O)C(=O)N[C@@H](Cc2c[nH]c3c(C)cccc23)C(=O)N[C@@H](C)C(=O)N[C@H](C(=O)N[C@@H](Cc2ccc(OCCN(C)C)cc2)C(=O)N[C@@H](Cc2ccc3ccccc3c2)C(=O)NC2(C(=O)N[C@@H](CCC(=O)O)C(=O)N[C@@H](CC(N)=O)C(=O)N[C@@H](Cc3cccnc3)C(=O)N(C)CC(=O)N(C)C)CCOCC2)C(C)(C)SSC1(C)C [compound 119] (Ac-[Pen]AT[Trp(7-Me)]A[Pen]Y(Me2NCH2CH2)[2Nal][Thp]EN[3Pal][Sar]-NMe2; disulfide 1-6 (inferred)) | 159 A^2 | 6.3 nM
CC(=O)N(C)CCCC[C@@H]1NC(=O)[C@H](CC(C)C)NC(=O)[C@H]([C@@H](C)O)NC(=O)[C@H](CC(=O)N(C)C)NC(=O)[C@@H](NC(=O)CCOCCOCC[N+](C)(C)C)C(C)(C)SSC(C)(C)[C@@H](C(=O)N[C@@H](Cc2ccc(OCCCCC[N+](C)(C)C)cc2)C(=O)N[C@@H](Cc2ccc3ccccc3c2)C(=O)NC2(C(=O)N[C@@H](CCCCN(C)C(C)=O)C(=O)N[C@@H](CC(N)=O)C(=O)N[C@@H](Cc3cccnc3)C(=O)N(C)CC(=O)N(C)C)CCOCC2)NC1=O [compound 511, cPEG3aCO-Pen(3)-N(N(Me)2)-T-L-K(NMeAc)-Pen(3)-TMAPF-2Nal-THP-K(NMeAc)-N-3Pya-Sar-CONMe2] ({Me3N+(CH2)2O(CH2)2O(CH2)2CO}-[Pen]D(NMe2)TL[Lys(Me)](Ac)[Pen]Y(X3)[2Nal][Thp][Lys(Me)](Ac)N[3Pal][Sar]-NMe2; disulfide 1-6) | 198 A^2 | > 16600 nM
COCCOCCOCCOCCOCCOCCC(=O)NCC[N+](C)(C)CC(=O)N[C@@H]1C(=O)N[C@@H](CC(=O)N(C)C)C(=O)N[C@@H]([C@@H](C)O)C(=O)N[C@@H](Cc2c[nH]c3c(C)cccc23)C(=O)N[C@@H](CCN(C)C(=O)CCOCCOCCOCCOCC[N+](C)(C)C)C(=O)N[C@H](C(=O)N[C@@H](Cc2ccc(OCCN)cc2)C(=O)N[C@@H](Cc2ccc3ccccc3c2)C(=O)NC2(C(=O)N[C@@H](CCC(=O)O)C(=O)N[C@@H](CC(N)=O)C(=O)N[C@@H](Cc3cccnc3)C(=O)N(C)CC(=O)N(C)C)CCOCC2)C(C)(C)SSC1(C)C [compound 143, mPEG6CO-SP6-Pen(3)-N(N(Me)2)-T-7MeW-Dab(NMecPEG5a)-Pen(3)-AEF-2Nal-THP-E-N-3Pya-Sar-CON(Me)2] (X7-[X24][Pen]D(NMe2)T[Trp(7-Me)][X1](Me3N+CH2CH2(OCH2CH2)4CO)[Pen][AEF][2Nal][Thp]EN[3Pal][Sar]-NMe2; disulfide 2-7 (inferred)) | 161 A^2 | 6.5 nM
CC(=O)NCCCC[C@@H]1NC(=O)[C@H](Cc2c[nH]c3c(C)cccc23)NC(=O)[C@H]([C@@H](C)O)NC(=O)[C@H](CC(N)=O)NC(=O)[C@@H](NC(C)=O)C(C)(C)SSC(C)(C)[C@@H](C(=O)N[C@@H](Cc2ccc(OCCN)cc2)C(=O)N[C@@H](Cc2ccc3ccccc3c2)C(=O)NC2(C(=O)N[C@@H](CCC(=O)O)C(=O)N[C@@H](CC(N)=O)C(=O)N[C@@H](Cc3cccnc3)C(=O)N(C)CC(=O)N3CCN(C)CC3)CCOCC2)NC1=O [compound 114] (Ac-[Pen]NT[Trp(7-Me)]K(Ac)[Pen][AEF][2Nal][Thp]EN[3Pal][Sar]-{Piperazinyl(4-Me)}; disulfide 1-6 (inferred)) | 173 A^2 | 28 nM
CC(=O)NCCCC[C@@H]1NC(=O)[C@H](Cc2c[nH]c3c(C)cccc23)NC(=O)[C@H]([C@@H](C)O)NC(=O)[C@H](CC(N)=O)NC(=O)[C@@H](NC(=O)COc2ccc(-c3ccc(F)cc3F)cc2C(=O)O)C(C)(C)SSC(C)(C)[C@@H](C(=O)N[C@@H](Cc2ccc(OCCCCC[N+](C)(C)C)cc2)C(=O)N[C@@H](Cc2ccc3ccccc3c2)C(=O)NC2(C(=O)N[C@@H](CCCCNC(=O)CCCc3ccc(I)cc3)C(=O)N[C@@H](CC(N)=O)C(=O)N[C@@H](Cc3cccnc3)C(=O)N(C)CC(N)=O)CCOCC2)NC1=O [compound 524, DFNCO-Pen(3)-N-T-7MeW-K(Ac)-Pen(3)-TMAPF-2Nal-THP-K(IPB)-N-3Pya-Sar-CONH2] | 198 A^2 | 54 nM
CC(=O)N[C@@H]1C(=O)N[C@@H](CC(=O)N(C)C)C(=O)N[C@@H]([C@@H](C)O)C(=O)N[C@@H](Cc2c[nH]c3c(C)cccc23)C(=O)N[C@@H](CCN(C)C(=O)COCCOCC[N+](C)(C)C)C(=O)N[C@H](C(=O)N[C@@H](Cc2ccc(OCCN)cc2)C(=O)N[C@@H](Cc2ccc3ccccc3c2)C(=O)NC2(C(=O)N[C@@H](CCC(=O)O)C(=O)N[C@@H](CC(N)=O)C(=O)N[C@@H](Cc3cccnc3)C(=O)N(C)CC(=O)N(C)C)CCOCC2)C(C)(C)SSC1(C)C [compound 130, MeCO-Pen(3)-N(N(Me)2)-T-7MeW-Dab(NMecPEG2a)-Pen(3)-AEF-2Nal-THP-E-N-3Pya-Sar-CON(Me)2] (Ac-[Pen]D(NMe2)T[Trp(7-Me)][X1](X5)[Pen][AEF][2Nal][Thp]EN[3Pal][Sar]-NMe2; disulfide 1-6) | 164 A^2 | 3.4 nM
CC(=O)N[C@H](CCCCNC(=O)CCC(=O)N[C@H](CC(=O)O)C[N+](C)(C)C)C(=O)N[C@@H]1C(=O)N[C@@H](CC(=O)N(C)C)C(=O)N[C@@H]([C@@H](C)O)C(=O)N[C@@H](Cc2c[nH]c3c(C)cccc23)C(=O)N[C@@H](CCCCN(C)C(C)=O)C(=O)N[C@H](C(=O)N[C@@H](Cc2ccc(OCCOCCOCC[N+](C)(C)C)cc2)C(=O)N[C@@H](Cc2ccc3ccccc3c2)C(=O)NC2(C(=O)N[C@@H](CCN(C)C(C)=O)C(=O)N[C@@H](CC(N)=O)C(=O)N[C@@H](Cc3cccnc3)C(=O)N(C)CC(=O)N(C)C)CCOCC2)C(C)(C)SSC1(C)C [compound 213, MeCO-k(d)-Pen(3)-N(N(Me)2)-T-7MeW-K(NMeAc)-Pen(3)-APEG3F-2Nal-THP-Dab(NMeAc)-N-3Pya-Sar-CON(Me)2] (Ac-[dK]([Suc-X19])[Pen]D(NMe2)T[Trp(7-Me)][Lys(Me)](Ac)[Pen]Y(CH2CH2OCH2CH2OCH2CH2NMe3+)[2Nal][Thp][Dab(NMeAc)]N[3Pal][Sar]-NMe2; disulfide 2-7) | 154 A^2 | 5.1 nM
CC(=O)N(C)CC[C@H](NC(=O)C1(NC(=O)[C@H](Cc2ccc3ccccc3c2)NC(=O)[C@H](Cc2ccc(OCCN)cc2)NC(=O)[C@H]2NC(=O)[C@H](CCC(=O)N(C)C)NC(=O)[C@H](Cc3c[nH]c4c(C)cccc34)NC(=O)[C@H]([C@@H](C)O)NC(=O)[C@H](CC(=O)N(C)C)NC(=O)[C@@H](NC(=O)CCOCCOCC[N+](C)(C)C)C(C)(C)SSC2(C)C)CCOCC1)C(=O)N[C@@H](CC(N)=O)C(=O)N[C@@H](Cc1cccnc1)C(=O)N(C)CC(=O)N(C)C [compound 159, cPEG3aCO-Pen(3)-N(N(Me)2)-T-7MeW-Q(N(Me)2)-Pen(3)-AEF-2Nal-THP-Dab(NMeAc)-N-3Pya-Sar-CON(Me)2] ({Me3N+(CH2)2O(CH2)2O(CH2)2CO}-[Pen]D(NMe2)T[Trp(7-Me)]E(NMe2)[Pen][AEF][2Nal][Thp][Dab(NMeAc)]N[3Pal][Sar]-NMe2; disulfide 1-6) | 149 A^2 | 1.8 nM
CCCC[N+](CCCC)(CCCC)CCOCCOCCOc1ccc(C[C@H](NC(=O)[C@H]2NC(=O)[C@H](CCCCN(C)C(C)=O)NC(=O)[C@H](Cc3c[nH]c4c(C)cccc34)NC(=O)[C@H]([C@@H](C)O)NC(=O)[C@H](CC(=O)N(C)C)NC(=O)[C@@H](NC(=O)CCOCCOCC[N+](C)(C)C)C(C)(C)SSC2(C)C)C(=O)N[C@@H](Cc2ccc3ccccc3c2)C(=O)NC2(C(=O)N[C@@H](CCCCN(C)C(C)=O)C(=O)N[C@@H](CC(N)=O)C(=O)N[C@@H](Cc3cccnc3)C(=O)N(C)CC(=O)N(C)C)CCOCC2)cc1 [compound 263, cPEG3aCO-Pen(3)-N(N(Me)2)-T-7MeW-K(NMeAc)-Pen(3)-TBAPEG3F-2Nal-THP-K(NMeAc)-N-3Pya-Sar-CON(Me)2] ({Me3N+(CH2)2O(CH2)2O(CH2)2CO}-[Pen]D(NMe2)T[Trp(7-Me)][Lys(Me)](Ac)[Pen]Y(X50)[2Nal][Thp][Lys(Me)](Ac)N[3Pal][Sar]-NMe2; disulfide 1-6 (inferred)) | 140 A^2 | 5 nM
CC(=O)NC(COCCOCC[N+](C)(C)C)C(=O)N[C@@H]1C(=O)N[C@@H](CC(=O)N(C)C)C(=O)N[C@@H]([C@@H](C)O)C(=O)N[C@@H](Cc2c[nH]c3c(C)cccc23)C(=O)N[C@@H](CCCCN(C)C(C)=O)C(=O)N[C@H](C(=O)N[C@@H](Cc2ccc(OCCOCCOCC[N+](C)(C)C)cc2)C(=O)N[C@@H](Cc2ccc3ccccc3c2)C(=O)NC2(C(=O)N[C@@H](CCCCN(C)C(C)=O)C(=O)N[C@@H](CC(N)=O)C(=O)N[C@@H](Cc3cccnc3)C(=O)N(C)CC(=O)N(C)C)CCOCC2)C(C)(C)SSC1(C)C (relative stereo) [compound 319, MeCO-APEG2Ser(R*)-Pen(3)-N(N(Me)2)-T-7MeW-K(NMeAc)-Pen(3)-APEG3F-2Nal-THP-K(NMeAc)-N-3Pya-Sar-CON(Me)2] | 151 A^2 | 1.8 nM
